Test system: SCLC cell lines
Assay: 96 hr proliferation assay in SCLC cell lines
Format: cell-based
Details: for response to single agent ATR inhibitor: the three cell lines with greater than additive response to the combination, SLFN11 low group

| Structure (SMILES) | response to single agent ATR inhibitor | lurbinectedin IC50 values (cells with low expression of SLFN11 (FIG. 1)) |
| --- | --- | --- |
| C[C@@H]1COCCN1c1cc(C2([S@](C)(=N)=O)CC2)nc(-c2cc[nH]c3nccc2-3)n1 [ceralasertib] | relatively resistant | – |
| CNCc1ccc(-c2cc(-c3nc(-c4ccc(S(=O)(=O)C(C)C)cc4)cnc3N)on2)cc1 [berzosertib] | relatively resistant | – |
| COc1ccc2[nH]c3c(c2c1)CCN[C@]31CS[C@@H]2c3c(OC(C)=O)c(C)c4c(c3[C@H](COC1=O)N1[C@@H]2[C@H]2c3c(cc(C)c(OC)c3O)C[C@@H]([C@@H]1O)N2C)OCO4 [lurbinectedin] | – | higher |

Reference: patent publication US20240058334A1, “METHODS FOR TREATING SMALL CELL LUNG CANCER AND OTHER NEUROENDOCRINE CANCERS” (AstraZeneca AB, priority 2021, published 2024)
